Assay results reported in patent US20230126447A1, “OCULAR DRUG DEPOT FOR COMPLEMENT-MEDIATED DISORDERS” (priority 2020, published 2023).
Blank lines part the entries; values can stand above or below the compound they belong to.

Assays:
[1] = In vitro binding to synthetic melanin; settings: synthetic melanin 50 μg/mL, PBS, 37° C., 1 hour
Experimental: (§1) […] The melanin solution was stored in the dark at 37° C. until use.
(§2) Immediately after the assay, samples were added to an equal volume of warm PBS, aliquots (3 μL each) were removed, added to 100 μL of acetonitrile containing carbutamide as internal standard, and then diluted with water (197 μL). These time-zero samples, prepared in PBS only, were also used as calibration standards.
(§3) The assay plates containing samples with and without melanin were incubated in the dark with shaking at 37° C. for 1 hour. Following incubation, the samples were centrifuged for 15 minutes at approximately 4000 rpm at 37° C. to sediment the melanin. Sample supernatant (3 μL) was added to 100 μL of acetonitrile containing the internal standard and then diluted with water (197 μL).
(§4) The column was set to a temperature of 55° C. […]
(§5) Analytes and internal standards were detected using an Applied Biosystems Sciex API-5500 triple quadrupole mass spectrometer with Agilent 1260 Infinity Binary Pump and Apricot Designs ADDA High-Speed Dual Arm Autosampling System. The instrument was equipped with an electrospray ionization source (600° C.) operated in the positive ion mode. Analytes and internal standards for all samples were monitored in the multiple-reaction-monitoring scan mode.

[2] = In vitro binding to melanin from Sepia officinalis; settings: S. officinalis melanin 50 μg/mL, PBS, 37° C., 1 hour
Experimental: as §1, §2, §3, §4, §5

[3] = Stability under melanin binding assay conditions; settings: PBS, 37° C., 1 hour vs time zero
Experimental: as §1, §3
% Stability=Mean Total Conc. (μM) after 1 Hour/Mean Total Conc. (μM) at Time Zero×100%

[4] = QWBA tissue distribution of [14C] Compound 2, Long-Evans rats (PO, IV); type: in vivo
Experimental: (§6) The study was conducted to determine the tissue distribution of [^14C] Compound 2-derived radioactivity following a single oral gavage (PO) administration of 20 mg/kg (100 μCi/kg) of [^14C] […] Compound 2 to a male Long-Evans rat using quantitative whole body autoradiography (QWBA).
(§7) A total of ten male Long-Evans and three male Wistar Hannover rats were administered a single PO dose of [^14C] […] One male Long-Evans rat was administered a single IV dose of [^14C] […] (See Table 3). One animal per group per strain was anesthetized by inhalation of isoflurane gas at designated time points post-dose, followed by blood collection via cardiac puncture and euthanasia by isoflurane overdose. Each carcass was then frozen in a dry ice/hexane bath. Blood and plasma samples were assayed for total radioactivity (TRA) concentrations by liquid scintillation counting (LSC). The tissue concentrations of TRA were determined using validated QWBA techniques. Pharmacokinetic parameters of derived radioactivity in blood, plasma, and tissues were calculated, to the extent possible, using Phoenix© WinNonlin® (Version 6.3, Pharsight Corporation; Mountain View, Calif.).

[5] = QWBA tissue distribution of [14C] Compound 2, Wistar Hannover rats (PO); type: in vivo; settings: 20 mg/kg PO
Experimental: as §6, §7

CFD = CFD (Homo sapiens, UniProt P00746); assay: Inhibitory effect on CFD; type: biochemical
[6] = male Long-Evans rats, 20 mg/kg PO
[7] = male Wistar Hannover rats, 1 h post-dose
[8] = male Wistar Hannover rats, 24 h post-dose

Sequence of CFD (P00746 26-253): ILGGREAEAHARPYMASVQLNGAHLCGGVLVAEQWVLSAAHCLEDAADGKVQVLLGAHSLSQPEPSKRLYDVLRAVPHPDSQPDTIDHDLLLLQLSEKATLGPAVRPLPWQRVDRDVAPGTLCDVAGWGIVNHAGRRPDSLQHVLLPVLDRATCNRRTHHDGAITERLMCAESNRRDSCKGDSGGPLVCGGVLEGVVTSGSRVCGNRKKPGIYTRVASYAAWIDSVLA

Bmax (binding capacity) [1]: 308 nmol/mg melanin | Bmax (binding capacity) [2]: 280 nmol/mg melanin | Mean Stability [3]: 87.3%
Structure (SMILES): CCN(CC)CCCC(C)Nc1ccnc2cc(Cl)ccc12 (stereo not shown) [Chloroquine, chloroquine, reference compound]

Radioactivity in the central nervous system ([4]; male Long-Evans rat, 5 mg/kg IV, […] post-dose): 0.201 μg equiv/g tissue | Tissue:plasma AUC0-t ratio, majority of tissues [4, 6]: greater than 1.00 | Tmax, majority of tissues [4, 6]: 1 h | Total plasma radioactivity ([4]; male Long-Evans rats, 20 mg/kg PO, 48 h post-dose): BLQ | Blood concentration of radioactivity ([4]; male Long-Evans rats, 20 mg/kg PO, 72 h post-dose): BLQ | Concentration of radioactivity, eye and uveal tract ([4]; male Long-Evans rats, 20 mg/kg PO, 840 h post-dose): 0.212 μg equiv/g tissue | Radioactivity in the central nervous system ([5]; Wistar Hannover rat, 1 h post-dose): 0.179 μg equiv/g tissue | Tmax, all tissues ([5]; male Wistar Hannover rats): 1 h | Tissue to plasma concentration ratio, brain [5, 7]: 0.04 | Tissue to plasma concentration ratio, cecum mucosa [5, 7]: 0.96 | Tissue to plasma concentration ratio, kidney medulla [5, 7]: 12.6 | Tissue to plasma concentration ratio, stomach wall non-glandular [5, 7]: 1.00 | Tissue to plasma ratio, bone marrow [5, 8]: 2.90 | Tissue to plasma ratio, stomach wall non-glandular [5, 8]: 100 | Total plasma radioactivity ([5]; male Wistar Hannover rats, 168 h post-dose): BLQ
Structure (SMILES): CC(=O)c1nn(CC(=O)N2[C@H](C(=O)Nc3nc(Br)ccc3C)C[C@@]3(C)C[C@@H]23)c2ccc(-c3cnc(C)nc3)cc12 [Compound 2, (1R,3S,5R)-2-(2-(3-acetyl-5-(2-methylpyrimidin-5-yl)-1H-indazol-1-yl)acetyl)-N-(6-bromo-3-methylpyridin-2-yl)-5-methyl-2-azabicyclo[3.1.0]hexane-3-carboxamide]

Structure (SMILES): CC(=O)c1cn(CC(=O)N2[C@H](C(=O)Nc3nc(Br)ccc3C)C[C@@]3(C)C[C@@H]23)c2c(C)cc(-c3cnc(C)nc3)cc12 [Compound 3, (1R,3S,5R)-2-(2-(3-acetyl-7-methyl-5-(2-methylpyrimidin-5-yl)-1H-indol-1-yl)acetyl)-N-(6-bromo-3-methylpyridin-2-yl)-5-methyl-2-azabicyclo[3.1.0]hexane-3-carboxamide]
IC50 (CFD): 32.1 nM
